Assays:
Assay in all cases: kinome screen (33PanQinase)
Assay type in all cases: biochemical
CLK2 = biological target: T1, CLK2 (Homo sapiens, UniProt P49760)
T1 construct: purchased Reaction Biology Europe GmbH (formerly ProQinase)
Description: (§1) The Kinome Screening was performed by Reaction Biology Europe GmbH (http://reactionbiology.com; Freiburg i. Br., Germany).

DDR2 = biological target: T2, DDR2 (Homo sapiens, UniProt Q16832)
T2 construct: purchased Reaction Biology Europe GmbH (formerly ProQinase)
T2 sequence (Q16832 22-855): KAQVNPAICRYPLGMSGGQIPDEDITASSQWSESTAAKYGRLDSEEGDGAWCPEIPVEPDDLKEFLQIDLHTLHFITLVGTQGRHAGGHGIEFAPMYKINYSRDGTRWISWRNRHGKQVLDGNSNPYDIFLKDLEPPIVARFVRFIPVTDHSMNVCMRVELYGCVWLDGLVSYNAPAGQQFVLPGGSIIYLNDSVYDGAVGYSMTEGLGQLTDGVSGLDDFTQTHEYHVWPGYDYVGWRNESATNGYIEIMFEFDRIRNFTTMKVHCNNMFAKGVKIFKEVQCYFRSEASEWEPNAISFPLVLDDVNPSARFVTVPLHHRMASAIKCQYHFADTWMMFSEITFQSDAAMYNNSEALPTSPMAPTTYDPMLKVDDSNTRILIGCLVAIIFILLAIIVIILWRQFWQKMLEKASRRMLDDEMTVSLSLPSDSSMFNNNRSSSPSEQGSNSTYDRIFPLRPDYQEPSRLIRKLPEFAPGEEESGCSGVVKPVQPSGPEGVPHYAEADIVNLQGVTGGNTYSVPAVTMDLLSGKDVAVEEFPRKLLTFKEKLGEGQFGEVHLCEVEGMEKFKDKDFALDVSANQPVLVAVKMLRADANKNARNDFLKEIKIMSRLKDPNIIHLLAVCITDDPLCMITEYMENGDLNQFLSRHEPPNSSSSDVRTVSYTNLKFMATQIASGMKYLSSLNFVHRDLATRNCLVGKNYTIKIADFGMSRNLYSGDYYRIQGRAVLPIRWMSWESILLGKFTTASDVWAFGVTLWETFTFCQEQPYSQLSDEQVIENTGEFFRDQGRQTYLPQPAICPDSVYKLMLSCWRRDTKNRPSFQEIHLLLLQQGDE
Description: as §1

EIF2AK2 = biological target: T3, EIF2AK2 (Homo sapiens, UniProt P19525)
T3 construct: purchased Reaction Biology Europe GmbH (formerly ProQinase)
Description: as §1

PHKG2 = biological target: T4, PHKG2 (Homo sapiens, UniProt P15735)
T4 construct: purchased Reaction Biology Europe GmbH (formerly ProQinase)
T4 sequence (P15735 1-406): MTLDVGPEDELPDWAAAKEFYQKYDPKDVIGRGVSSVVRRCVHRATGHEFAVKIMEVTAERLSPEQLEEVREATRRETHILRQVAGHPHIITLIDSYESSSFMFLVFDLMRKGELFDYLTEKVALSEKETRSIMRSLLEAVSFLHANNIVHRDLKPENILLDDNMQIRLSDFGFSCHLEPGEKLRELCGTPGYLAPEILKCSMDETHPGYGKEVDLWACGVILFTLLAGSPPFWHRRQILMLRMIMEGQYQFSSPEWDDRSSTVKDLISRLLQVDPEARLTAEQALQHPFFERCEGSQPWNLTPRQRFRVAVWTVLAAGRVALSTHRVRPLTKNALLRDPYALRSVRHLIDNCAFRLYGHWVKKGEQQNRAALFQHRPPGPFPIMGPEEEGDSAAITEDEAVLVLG
Description: as §1

PRK2 = biological target: T5, PRK2 (Homo sapiens, UniProt Q16513)
T5 construct: purchased Reaction Biology Europe GmbH (formerly ProQinase)
Description: as §1

PRKX = biological target: T6, PRKX (Homo sapiens, UniProt P51817)
T6 construct: purchased Reaction Biology Europe GmbH (formerly ProQinase)
T6 sequence (P51817 1-358): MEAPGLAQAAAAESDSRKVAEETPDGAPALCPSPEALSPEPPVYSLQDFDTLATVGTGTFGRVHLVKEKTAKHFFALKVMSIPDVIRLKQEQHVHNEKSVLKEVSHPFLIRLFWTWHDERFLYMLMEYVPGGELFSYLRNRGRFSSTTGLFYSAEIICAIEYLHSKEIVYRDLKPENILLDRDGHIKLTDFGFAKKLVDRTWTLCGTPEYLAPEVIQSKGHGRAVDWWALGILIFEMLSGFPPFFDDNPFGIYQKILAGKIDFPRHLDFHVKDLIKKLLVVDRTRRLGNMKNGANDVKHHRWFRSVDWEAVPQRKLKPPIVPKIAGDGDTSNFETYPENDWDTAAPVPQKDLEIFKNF
Description: as §1

RIPK5 = biological target: T7, RIPK5 (Homo sapiens, UniProt Q6XUX3)
T7 construct: purchased Reaction Biology Europe GmbH (formerly ProQinase)
T7 sequence (Q6XUX3 1-929): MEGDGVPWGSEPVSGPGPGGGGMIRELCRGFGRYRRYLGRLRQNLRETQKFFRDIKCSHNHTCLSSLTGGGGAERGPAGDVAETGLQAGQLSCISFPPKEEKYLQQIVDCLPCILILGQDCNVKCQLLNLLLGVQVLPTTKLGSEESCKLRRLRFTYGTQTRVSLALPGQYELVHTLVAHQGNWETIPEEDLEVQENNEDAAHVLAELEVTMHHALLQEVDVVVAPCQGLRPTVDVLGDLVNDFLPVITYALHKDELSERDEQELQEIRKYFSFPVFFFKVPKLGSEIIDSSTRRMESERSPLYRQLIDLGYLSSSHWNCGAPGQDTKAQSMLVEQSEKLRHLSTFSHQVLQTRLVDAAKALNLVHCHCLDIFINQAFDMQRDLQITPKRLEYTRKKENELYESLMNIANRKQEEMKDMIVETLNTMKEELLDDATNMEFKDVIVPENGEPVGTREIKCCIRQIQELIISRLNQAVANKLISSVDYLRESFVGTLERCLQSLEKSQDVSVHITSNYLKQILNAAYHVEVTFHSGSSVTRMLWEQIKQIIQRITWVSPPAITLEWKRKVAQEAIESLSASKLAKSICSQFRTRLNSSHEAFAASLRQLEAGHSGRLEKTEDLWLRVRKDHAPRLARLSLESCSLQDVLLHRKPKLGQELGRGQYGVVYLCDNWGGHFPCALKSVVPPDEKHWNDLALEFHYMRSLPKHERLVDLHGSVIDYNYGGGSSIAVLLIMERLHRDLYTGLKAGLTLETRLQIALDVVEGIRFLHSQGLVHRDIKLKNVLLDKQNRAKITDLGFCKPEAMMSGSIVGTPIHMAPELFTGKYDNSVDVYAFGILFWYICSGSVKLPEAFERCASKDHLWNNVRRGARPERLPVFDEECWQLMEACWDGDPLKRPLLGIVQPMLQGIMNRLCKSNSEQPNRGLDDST
Description: as §1

RPS6KA3 = biological target: T8, RPS6KA3 (Homo sapiens, UniProt P51812)
T8 construct: purchased Reaction Biology Europe GmbH (formerly ProQinase)
Description: as §1

T8 sequence (P51812 whole entry): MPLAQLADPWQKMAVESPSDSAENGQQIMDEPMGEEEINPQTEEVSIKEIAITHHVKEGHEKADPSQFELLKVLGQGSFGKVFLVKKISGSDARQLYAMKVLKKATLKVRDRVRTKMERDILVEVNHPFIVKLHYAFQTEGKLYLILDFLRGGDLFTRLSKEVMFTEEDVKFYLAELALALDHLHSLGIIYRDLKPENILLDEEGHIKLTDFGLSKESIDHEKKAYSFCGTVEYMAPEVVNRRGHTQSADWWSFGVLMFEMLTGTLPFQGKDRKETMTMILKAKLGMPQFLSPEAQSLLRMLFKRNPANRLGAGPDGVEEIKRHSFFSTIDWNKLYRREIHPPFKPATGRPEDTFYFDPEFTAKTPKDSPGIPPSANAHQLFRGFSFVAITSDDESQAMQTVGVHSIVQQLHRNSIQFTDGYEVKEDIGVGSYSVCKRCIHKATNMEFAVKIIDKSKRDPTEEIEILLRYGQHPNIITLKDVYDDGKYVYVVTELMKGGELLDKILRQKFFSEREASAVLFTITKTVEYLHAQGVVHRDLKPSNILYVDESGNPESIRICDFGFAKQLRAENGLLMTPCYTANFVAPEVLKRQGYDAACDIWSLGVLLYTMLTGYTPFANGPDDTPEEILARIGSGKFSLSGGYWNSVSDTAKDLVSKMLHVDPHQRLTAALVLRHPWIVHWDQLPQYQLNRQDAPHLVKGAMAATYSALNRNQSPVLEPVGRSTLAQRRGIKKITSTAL
T3 sequence (P19525 whole entry): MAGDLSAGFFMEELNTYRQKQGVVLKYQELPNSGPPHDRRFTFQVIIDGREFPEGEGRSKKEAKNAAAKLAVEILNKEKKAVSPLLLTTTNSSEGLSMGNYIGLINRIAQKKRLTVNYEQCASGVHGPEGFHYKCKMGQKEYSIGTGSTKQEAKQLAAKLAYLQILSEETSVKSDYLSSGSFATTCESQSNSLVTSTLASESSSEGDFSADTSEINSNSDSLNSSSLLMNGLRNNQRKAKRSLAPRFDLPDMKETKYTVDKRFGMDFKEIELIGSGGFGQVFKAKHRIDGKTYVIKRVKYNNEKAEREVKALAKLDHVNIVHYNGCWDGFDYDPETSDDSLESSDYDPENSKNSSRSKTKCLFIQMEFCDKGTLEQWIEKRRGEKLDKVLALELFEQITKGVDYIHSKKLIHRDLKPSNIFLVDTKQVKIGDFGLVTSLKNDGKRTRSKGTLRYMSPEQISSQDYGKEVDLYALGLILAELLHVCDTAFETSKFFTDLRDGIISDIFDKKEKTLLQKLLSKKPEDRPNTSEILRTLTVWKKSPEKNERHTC
T5 sequence (Q16513 whole entry): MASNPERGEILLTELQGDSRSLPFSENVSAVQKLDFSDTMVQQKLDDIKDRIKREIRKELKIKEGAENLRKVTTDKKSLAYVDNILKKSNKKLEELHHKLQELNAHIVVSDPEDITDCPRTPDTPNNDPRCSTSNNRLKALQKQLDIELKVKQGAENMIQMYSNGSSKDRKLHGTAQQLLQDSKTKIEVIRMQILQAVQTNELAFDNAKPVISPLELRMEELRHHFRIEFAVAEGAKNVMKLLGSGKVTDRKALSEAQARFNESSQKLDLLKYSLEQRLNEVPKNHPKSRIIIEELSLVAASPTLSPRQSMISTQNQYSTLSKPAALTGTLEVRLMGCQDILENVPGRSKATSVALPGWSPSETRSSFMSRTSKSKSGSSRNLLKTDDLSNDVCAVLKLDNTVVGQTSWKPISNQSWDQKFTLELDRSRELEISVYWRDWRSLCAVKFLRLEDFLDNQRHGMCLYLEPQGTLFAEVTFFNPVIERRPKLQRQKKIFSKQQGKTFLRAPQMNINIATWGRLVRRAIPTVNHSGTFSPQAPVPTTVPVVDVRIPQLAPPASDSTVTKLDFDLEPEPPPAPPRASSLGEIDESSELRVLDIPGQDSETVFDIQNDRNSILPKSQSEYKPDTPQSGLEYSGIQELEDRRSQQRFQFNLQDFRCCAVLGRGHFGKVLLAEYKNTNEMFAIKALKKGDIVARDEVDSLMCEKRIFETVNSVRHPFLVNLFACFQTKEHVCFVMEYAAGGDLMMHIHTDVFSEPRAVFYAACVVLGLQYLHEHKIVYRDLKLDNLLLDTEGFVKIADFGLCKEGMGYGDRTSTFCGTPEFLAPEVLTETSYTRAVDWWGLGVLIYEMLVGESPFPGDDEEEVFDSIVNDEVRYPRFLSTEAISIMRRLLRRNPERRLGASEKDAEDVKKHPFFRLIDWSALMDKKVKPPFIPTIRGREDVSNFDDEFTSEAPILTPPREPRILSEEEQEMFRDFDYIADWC
T1 sequence (P49760 whole entry): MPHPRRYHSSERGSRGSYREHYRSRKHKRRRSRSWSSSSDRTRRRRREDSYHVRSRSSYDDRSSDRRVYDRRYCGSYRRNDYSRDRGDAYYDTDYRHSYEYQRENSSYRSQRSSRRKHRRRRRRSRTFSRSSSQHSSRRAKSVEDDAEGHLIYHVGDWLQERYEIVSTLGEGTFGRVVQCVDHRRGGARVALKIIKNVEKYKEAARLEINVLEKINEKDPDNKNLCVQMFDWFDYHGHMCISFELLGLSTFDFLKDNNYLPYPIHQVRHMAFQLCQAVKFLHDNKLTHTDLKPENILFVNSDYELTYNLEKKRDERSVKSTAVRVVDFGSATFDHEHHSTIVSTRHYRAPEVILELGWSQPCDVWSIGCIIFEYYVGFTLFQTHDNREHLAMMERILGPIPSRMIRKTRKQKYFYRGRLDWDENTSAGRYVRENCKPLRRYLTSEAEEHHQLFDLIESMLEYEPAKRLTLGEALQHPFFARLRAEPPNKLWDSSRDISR

Compound | residual kinase activity (CLK2; 0.3 µM) | residual kinase activity (DDR2; 0.3 µM) | residual kinase activity (EIF2AK2; 0.3 µM) | residual kinase activity (PHKG2; 0.3 µM) | residual kinase activity (PRK2; 0.3 µM) | residual kinase activity (PRKX; 0.3 µM) | residual kinase activity (RIPK5; 0.3 µM) | residual kinase activity (RPS6KA3; 0.3 µM) | further results
COc1ccnc2[nH]cc(-c3cc(N)nc(N)c3)c12 [meriolin 16] | 1 % of control | 93 % of control | 95 % of control | 52 % of control | 42 % of control | 3 % of control | 86 % of control | 39 % of control | residual kinase activity (CLK2; 0.03 µM): 8 % of control; residual kinase activity (DDR2; 0.03 µM): 105 % of control; residual kinase activity (EIF2AK2; 0.03 µM): 83 % of control; residual kinase activity (PHKG2; 0.03 µM): 74 % of control; residual kinase activity (PRK2; 0.03 µM): 90 % of control; residual kinase activity (PRKX; 0.03 µM): 54 % of control; residual kinase activity (RIPK5; 0.03 µM): 101 % of control; residual kinase activity (RPS6KA3; 0.03 µM): 85 % of control
c1ccc(CNc2cc(-c3c[nH]c4ncccc34)ccn2)cc1 [meriolin 36] | 1 % of control | 59 % of control | 79 % of control | 52 % of control | 8 % of control | 15 % of control | 58 % of control | 7 % of control | residual kinase activity (CLK2; 3 µM): 2 % of control; residual kinase activity (DDR2; 3 µM): 17 % of control; residual kinase activity (EIF2AK2; 3 µM): 63 % of control; residual kinase activity (PHKG2; 3 µM): 23 % of control; residual kinase activity (PRK2; 3 µM): 0 % of control; residual kinase activity (PRKX; 3 µM): -1 % of control; residual kinase activity (RIPK5; 3 µM): 16 % of control; residual kinase activity (RPS6KA3; 3 µM): 1 % of control
